This is an account of results in US20220348590A1, “CYCLOOXYGENASE-2 INHIBITORS AND USES THEREOF” (The Board Institute, Inc., priority 2019, published 2022).

Entries after “also recorded” stand apart in the source; their conditions may differ.

This assay deals with T1, human recombinant COX2 (hCOX2) (UniProt P35354).
T1 sequence (P35354 1-604): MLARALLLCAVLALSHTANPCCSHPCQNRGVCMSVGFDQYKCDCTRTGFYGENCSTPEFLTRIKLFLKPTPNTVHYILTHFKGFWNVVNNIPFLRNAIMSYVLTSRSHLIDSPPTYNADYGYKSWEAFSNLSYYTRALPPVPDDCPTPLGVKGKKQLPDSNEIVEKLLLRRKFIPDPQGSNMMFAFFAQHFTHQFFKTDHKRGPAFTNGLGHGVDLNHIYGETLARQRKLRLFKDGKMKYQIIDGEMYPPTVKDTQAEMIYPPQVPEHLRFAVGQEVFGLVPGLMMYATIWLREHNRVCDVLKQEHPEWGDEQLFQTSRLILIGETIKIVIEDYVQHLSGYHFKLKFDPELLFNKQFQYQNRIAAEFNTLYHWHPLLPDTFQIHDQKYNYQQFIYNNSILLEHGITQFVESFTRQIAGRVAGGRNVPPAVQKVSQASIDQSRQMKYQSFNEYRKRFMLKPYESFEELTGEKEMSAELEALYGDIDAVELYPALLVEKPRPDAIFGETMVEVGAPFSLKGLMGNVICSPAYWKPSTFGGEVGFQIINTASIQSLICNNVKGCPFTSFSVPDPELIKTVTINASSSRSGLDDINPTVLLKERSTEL
Description: LCMS-based COX2 enzymatic inhibition assay (PGE2 quantification). Also on record: improvement in potency; other: COX2 potency relative to MC1 / earlier ligand; comparator not always stated; other: vs MC1 (MC-1). In kind it is biochemical. The procedure:
We have adapted a previously reported cyclooxygenase enzymatic assay utilizing LCMS quantification of PGE2 as the product of COX-1 and COX2 catalyzed conversion of arachidonic acid to evaluate the binding properties of newly synthesized ligands [Cao, 2011]. These optimized and miniaturized (384-well plates) LCMS-based COX-1 and COX2 enzymatic assays enabled us to quickly evaluate newly synthesized ligands for COX2 binding affinity and selectivity vs COX-1. Using a shorter ligand-enzyme incubation time in the LCMS assay (2 minutes vs 10 minutes) also permitted us to prioritize ligands with faster binding kinetics. Considering the relatively slow on-rate kinetics of known coxibs, due to their 3-step binding mechanism [Marnett, 2009], we believe that optimizing this critical parameter will be key to the successful development of a COX2 PET tracer. Using these enzymatic assays, we have evaluated>200 newly synthesized ligands against COX2 and >20 ligands against COX-1. Another critical property necessary for a good PET radiotracer is to have low non-specific binding (NSB) to increase the free fraction and maximize the signal to noise ratio. This property can be evaluated using in-vitro protein binding assays, and we have now evaluated>50 newly synthesized ligands in mouse, rat and human plasma protein binding (PPB) assays as well as >15 ligands in a mouse brain protein binding (BPB) assay.
Ovine COX-1 (oCOX-1), ovine COX2 (oCOX2), human recombinant COX2 (hCOX2), arachidonic acid, PGE2, d4-PGD2, and […] (labeled with deuterium atoms at positions 3 and 4) were purchased from Cayman Chemicals (Ann Arbor, Mich.). The cofactors (−)epinephrine and hematin, and the COX inhibitors indomethacin, resveratrol and diclofenac were purchased from Sigma-Aldrich (St. Louis, Mo.). Celecoxib was purchased from 3B PharmaChem International (Wuhan, China). All organic solvents were HPLC grade or better and were purchased from Thermo Fisher (Hanover Park, Ill.). Formic acid was purchased from EMD Chemicals (San Diego, Calif.). Purified water was prepared by using a Millipore Milli-Q purification system (Millipore, Billerica, Mass.). All other chemicals and solvents were ACS reagent grade, unless stated otherwise.
In an Eppendorf tube, 146 μL of 100 mM Tris.HCl (pH 8.0) buffer, 2 μL of 100 μM hematin (co-factor) and 10 μL of 40 mM L-epinephrine (co-factor) were mixed at room temperature. […]
The concentration of PGE2 in each sample was measured using LC-MS-MS, and the percent of COX inhibition by each test solution was determined by comparing the amount of PGE2 produced in the experiment with that produced in the negative control incubation. The formation of PGD2 was measured for quality control purposes, since the levels of PGD2 should be proportional to those of PGE2. […]

For the molecule `CS(=O)(=O)c1ccc(-c2cncc(NCc3cccs3)n2)cc1` [Compound 98], the “potency / binding affinity compared to MC1” value (vs MC1 (MC-1)) is given as “maintaining potency; also recorded: equivalent binding affinity”.
With `CS(=O)(=O)c1ccc(-c2cccc(NCc3ccoc3)n2)cc1` [Compound 47, N-(furan-3-ylmethyl)-6-(4-(methylsulfonyl)phenyl)pyridin-2-amine], the improvement in potency (COX2 potency relative to MC1 / earlier ligand, comparator not always stated) was approximately 4 fold.
